According to the supplement of paper PMC10883282:
± gives the standard deviation of the averaged measurements.

Test system: KHOS-240S
Experiment: relative viability vs DMSO control (72 h) (fraction); higher = more viable cells
Outline: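 Serially diluted compound, 2.5 µl from source plates spanning 10 mM to 0.0002 mM, was added 24 h after sarcoma cell lines were seeded in 384-well plates at densities targeting 80–90% confluence. Plates then sat 72 h at 37 °C, 5% CO2, with 0.1% DMSO vehicle and a 5 µM positive control. Relative viability came from ATPLite as percent growth, averaged over up to triplicate wells, and was rescaled with 1 as full and 0 as none.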

SMILES | relative viability (0.00017 µM) | relative viability (0.00051 µM) | relative viability (0.00152 µM) | relative viability (0.00457 µM) | relative viability (0.01372 µM) | relative viability (0.04115 µM) | relative viability (0.1235 µM) | relative viability (0.3704 µM) | relative viability (1.111 µM) | relative viability (3.333 µM) | relative viability (10 µM)
CCN1CCN(Cc2ccc(Nc3ncc(F)c(-c4cc(F)c5nc(C)n(C(C)C)c5c4)n3)nc2)CC1 [Abemaciclib] | 1.04 ± 0.038 | 1.07 ± 0.061 | 1.07 ± 0.059 | 1.05 ± 0.039 | 1.04 ± 0.048 | 1 ± 0.077 | 0.892 ± 0.071 | 0.834 ± 0.028 | 0.736 ± 0.024 | 0.7 ± 0.014 | 0.539 ± 0.025
CC(C)NC(=O)C1CCC(n2c(NC(=O)c3ccc(F)cc3)nc3ccc(CN4CCC(C(C)(C)O)CC4)cc32)CC1 (stereo not drawn) [Belizatinib] | 1.07 ± 0.02 | 1.06 ± 0.012 | 1.07 ± 0.043 | 1.08 ± 0.013 | 1.08 ± 0.041 | 1.06 ± 0.033 | 1.06 ± 0.034 | 0.923 ± 0.02 | 0.713 ± 0.038 | 0.399 ± 0.0041 | 0.189 ± 0.0089
CC[C@H](Nc1ncnc2[nH]cnc12)c1nc2cccc(F)c2c(=O)n1-c1ccccc1 [Idelalisib] | 1.1 ± 0.062 | 1.11 ± 0.064 | 1.11 ± 0.056 | 1.1 ± 0.065 | 1.09 ± 0.071 | 1.08 ± 0.068 | 1.08 ± 0.051 | 1.06 ± 0.078 | 1.03 ± 0.058 | 0.942 ± 0.074 | 0.901 ± 0.079
CC(C)(C)c1cc(NC(=O)Nc2ccc(-c3cn4c(n3)sc3cc(OCCN5CCOCC5)ccc34)cc2)no1 [Quizartinib] | 1.06 ± 0.037 | 1.05 ± 0.011 | 1.05 ± 0.025 | 1.05 ± 0.02 | 1.06 ± 0.026 | 1.049 ± 0.0031 | 1.03 ± 0.029 | 1.01 ± 0.027 | 0.994 ± 0.036 | 0.796 ± 0.05 | 0.7219 ± 0.0064
Cc1cnc(Nc2ccc(OCCN3CCCC3)cc2)nc1Nc1cccc(S(=O)(=O)NC(C)(C)C)c1 [Fedratinib] | 1.07 ± 0.046 | 1.07 ± 0.047 | 1.07 ± 0.033 | 1.06 ± 0.023 | 1.05 ± 0.058 | 1.05 ± 0.094 | 0.989 ± 0.062 | 0.801 ± 0.018 | 0.412 ± 0.031 | 0.103 ± 0.011 | 0.0053 ± 0.0017
CC1(C)CNc2cc(NC(=O)c3cccnc3NCc3ccncc3)ccc21 [Motesanib] | 0.972 ± 0.026 | 0.982 ± 0.027 | 0.973 ± 0.03 | 0.992 ± 0.025 | 0.983 ± 0.018 | 0.96 ± 0.023 | 0.97 ± 0.013 | 0.931 ± 0.042 | 0.922 ± 0.075 | 0.874 ± 0.066 | 0.803 ± 0.03
Nc1cc(C(F)(F)F)c(-c2cc(N3CCOCC3)nc(N3CCOCC3)n2)cn1 [Buparlisib] | 1.039 ± 0.01 | 1.02 ± 0.024 | 1.04 ± 0.012 | 1.02 ± 0.033 | 1.03 ± 0.032 | 1.03 ± 0.083 | 0.989 ± 0.023 | 0.9151 ± 0.008 | 0.708 ± 0.024 | 0.114 ± 0.0036 | 0.0584 ± 0.0016
Cc1cc(C)c(/C=C2\C(=O)Nc3ccccc32)[nH]1 [Semaxanib] | 1.01 ± 0.02 | 1.01 ± 0.032 | 1.01 ± 0.025 | 1.02 ± 0.034 | 0.99 ± 0.01 | 0.966 ± 0.013 | 0.951 ± 0.022 | 0.959 ± 0.024 | 0.844 ± 0.025 | 0.812 ± 0.023 | 0.803 ± 0.024
CCc1cc2c(cc1N1CCC(N3CCOCC3)CC1)C(C)(C)c1[nH]c3cc(C#N)ccc3c1C2=O [Alectinib] | 1.06 ± 0.048 | 1.09 ± 0.075 | 1.09 ± 0.064 | 1.08 ± 0.066 | 1.06 ± 0.072 | 1.07 ± 0.069 | 1.05 ± 0.074 | 0.998 ± 0.079 | 0.996 ± 0.063 | 0.984 ± 0.054 | 0.971 ± 0.073
Cn1cnc2c(F)c(Nc3ccc(Br)cc3F)c(C(=O)NOCCO)cc21 [Binimetinib] | 1.03 ± 0.053 | 1.06 ± 0.054 | 1.07 ± 0.067 | 1.06 ± 0.052 | 0.998 ± 0.02 | 0.975 ± 0.027 | 0.922 ± 0.04 | 0.895 ± 0.069 | 0.855 ± 0.0094 | 0.737 ± 0.027 | 0.637 ± 0.045
C=CC(=O)Nc1cccc(Oc2nc(Nc3ccc(N4CCN(C)CC4)cc3)nc3ccsc23)c1 [Olmutinib] | 1.01 ± 0.015 | 1.03 ± 0.014 | 1.04 ± 0.018 | 1.02 ± 0.025 | 1.01 ± 0.024 | 1.04 ± 0.011 | 1.03 ± 0.032 | 0.997 ± 0.04 | 0.998 ± 0.035 | 0.865 ± 0.036 | 0.39 ± 0.017
CN1CCN(c2ccc3nc(-c4c(N)c5c(F)cccc5[nH]c4=O)[nH]c3c2)CC1 [Dovitinib] | 1.07 ± 0.031 | 1.04 ± 0.051 | 1.06 ± 0.046 | 1.02 ± 0.023 | 1.05 ± 0.033 | 1.08 ± 0.019 | 0.979 ± 0.022 | 0.891 ± 0.059 | 0.548 ± 0.014 | 0.289 ± 0.027 | 0.0854 ± 0.0022
O=C(Cc1ccc(-c2ccc(OCCN3CCOCC3)cc2)cn1)NCc1ccccc1 [KX2-391] | 1.07 ± 0.025 | 1.1 ± 0.037 | 1.1 ± 0.02 | 1.07 ± 0.035 | 1.06 ± 0.049 | 0.896 ± 0.022 | 0.26 ± 0.013 | 0.221 ± 0.014 | 0.161 ± 0.011 | 0.142 ± 0.02 | 0.134 ± 0.015
C[C@@H]1COCCN1c1cc(-c2ccnn2C)c2ccnc(-c3ccn[nH]3)c2n1 | 1.04 ± 0.014 | 1.06 ± 0.013 | 1.07 ± 0.042 | 1.04 ± 0.011 | 1.01 ± 0.036 | 0.783 ± 0.028 | 0.366 ± 0.051 | 0.194 ± 0.026 | 0.161 ± 0.0077 | 0.129 ± 0.0056 | 0.119 ± 0.0037
CNC(=O)c1cc(Oc2ccc(NC(=O)Nc3ccc(Cl)c(C(F)(F)F)c3)c(F)c2)ccn1 [Regorafenib] | 1.05 ± 0.055 | 1.09 ± 0.052 | 1.07 ± 0.051 | 1.07 ± 0.053 | 1.1 ± 0.059 | 1.1 ± 0.049 | 1.09 ± 0.04 | 1.04 ± 0.014 | 0.96 ± 0.09 | 0.812 ± 0.045 | 0.5087 ± 0.00089
Cc1ccc(NC(=O)c2ccc(CN3CCN(C)CC3)cc2)cc1Nc1nc(-c2cccnc2)cs1 [Masitinib] | 1.02 ± 0.03 | 1.03 ± 0.021 | 1.04 ± 0.017 | 1.03 ± 0.011 | 1.01 ± 0.051 | 1.01 ± 0.047 | 0.98133 ± 0.00047 | 0.862 ± 0.033 | 0.758 ± 0.012 | 0.474 ± 0.028 | 0.109 ± 0.005
CNC(=O)c1ccc(-c2cnc3ncc(Cc4ccc5ncccc5c4)n3n2)cc1F [Capmatinib] | 1.07 ± 0.048 | 1.05 ± 0.02 | 1.046 ± 0.0098 | 1.07 ± 0.033 | 1.07 ± 0.018 | 1.06 ± 0.018 | 1.06 ± 0.027 | 1.04 ± 0.018 | 1.03 ± 0.018 | 1.03 ± 0.012 | 0.986 ± 0.03
CCCS(=O)(=O)Nc1ccc(F)c(C(=O)c2c[nH]c3ncc(-c4ccc(Cl)cc4)cc23)c1F [Vemurafenib] | 1.09 ± 0.063 | 1.07 ± 0.032 | 1.09 ± 0.049 | 1.08 ± 0.024 | 1.08 ± 0.026 | 1.07 ± 0.034 | 1.07 ± 0.033 | 1.07 ± 0.02 | 1.075 ± 0.0032 | 1.01 ± 0.02 | 0.708 ± 0.046
